Results on nine molecules are retold here after patent US9925134B2, “Use of substances to protect FGF-2 or FGF-beta growth factor” (BASF Beauty Care Solutions France SAS, priority 2007, dated 2018).

Bounds are passed on as bounds.

Assay [1] deals with normal human fibroblasts. As to the kind of experiment: Stimulation of collagen synthesis, 3H-proline incorporation. In kind it is cell-based. The settings on record: Vitamin C 20 μg/ml; 48 hrs. Here is the method: A control was made in parallel with medium only. After 24 hrs of contact, radioactive […]-proline) is added to the medium. At the end of the experiment, the supernatants are collected for dosing the incorporation of radioactive […] into the intracellular proteins.

Assay [2] deals with normal human dermal fibroblasts. The assay is described as follows: Fibroblast proliferation by FGF-2 protected by heparin or extract 5c (PNPP). In kind it is cell-based. The settings on record: for Proliferation (expressed as percent relative to the non-treated well): 48 hrs, heparin 0.01% during 24 hrs at 37° C. Here is the method: A solution of FGF-2 is prepared extemporaneously (=non-degraded FGF-2); a solution of FGF-2 is placed for 24 hrse at 37° C. in the absence (=degraded FGF-2) and in the presence of heparin (=FGF-2+heparin at 37° C.) at 0.01%.
Each FGF-2 solution is diluted so as to be applied on the cells, the final FGF-2 concentrations being the following: 0.1, 0.25, 0.5, 0.75 and 1 ng/ml.
Normal human dermal fibroblasts were sown at low density in 6-well plates. They were then grown in a medium in the absence (control) or in the presence of FGF-2 at various concentrations.
After 48 hrs, the activity of intracellular acid phosphatases (PNPP) is dosed, so as to be able to evaluate the effect of FGF-2 solutions, either treated or not, on cell proliferation.
The results are expressed as a proliferation percentage relative to the control well i.e. to the non-treated well.
The same experiment was conducted by replacing heparin with extract 5c. The FGF-2 solution put into the presence of 0.5% of extract 5c is placed for 24 hrs at 37° C. The solution is then diluted so as to apply 0.5 ng/ml of FGF-2 in the wells containing the fibroblasts.
The 5c extract concentration finally applied on the cells is 0.0025%. It was checked beforehand that this 5c extract concentration was not capable of inducing stimulation of the proliferation of fibroblasts. This means that the observed stimulation of proliferation is actually due to the protection of FGF-2 by extract 5c (see Table 8).

The test system of assay [3] is normal human fibroblasts. As to the kind of experiment: Stimulation of synthesis of total GAGs, radioactive glucosamine incorporation. In kind it is cell-based. The conditions noted are these: TGF-β 10 ng/ml; 72 hrs. As to the method: (§1) Normal human fibroblasts stemming from a donor, were grown in 96-well plates with medium (consisting of DMEM, glutamine 2 mM, penicillin 50 IU/ml-streptomycin 50 μg/ml, 10% fetal calf serum) for 24 hrs. […] A control was made in parallel with the medium only.
After 48 hrs of contact, radioactive glucosamine (D-(6-^3H)-glucosamine) is added to the medium.
(§2) At the end of the experiment, the supernatants are collected for dosing the incorporation of radioactive glucosamine into the intracellular proteins. Dosage of the proteins is performed with a commercial kit (BioRad 500-0116).

The subject of assay [4] is normal human fibroblasts. The assay is described as follows: Stimulation of synthesis of sulfated GAGs, 35S-sulfate incorporation. The conditions noted are these: TGF-β 10 ng/ml. In kind it is cell-based. As to the method: as §1, §2
In the same way, a study of the incorporation of ^35S-sulfate is conducted for quantifying the sulfated GAGs. The applied procedure is the same as that for the total GAGs, except for the nature of the radioactive precursor.

Assay [5] concerns the target T1, FGF-2 (Homo sapiens, UniProt P09038). As to the kind of experiment: Protection of FGF-2 against thermal degradation, stress of 2.15 hrs at 45° C., FGF-2 dosed by ELISA kit. The conditions noted are these: for FGF-2 protection by GAGs and proteoglycans of the skin (in words): solutions at 0.1%. The class given is biochemical. Here is the method: Degradation of FGF-2 observed at about 50° C. is particularly interesting, because a short period of time allows degradation of FGF-2 of about 80%, thereby allowing a large number of tests to be conducted. For this reason, it was decided to achieve screening with a stress of 2.15 hrs at 45° C. and to study the capacity of a large number of actives for protecting FGF-2 against this thermal degradation.
The applied screening model is the following: • 180 μl of a 4.5 ng/ml FGF-2 solution prepared in 0.1% BSA/PBS buffer are distributed in a 96-well microplate. 20 μl of distilled water or 0.05% heparin or a solution containing various active ingredients extracted from different plants to be tested are added. The plate is stirred by means of a plate stirrer and then covered with adhesive tape and placed in an oven at 45° C. for 2.15 hrs. At the end of the incubation period, the plate is taken out and dosage of FGF-2 is then carried out by means of the ELISA kit.
A control plate only containing FGF-2 and distilled water, treated under the same conditions, is left at room temperature.
The results are expressed as a FGF-2 protection percentage relatively to the non-stressed or non-degraded FGF-2 control.
The stress protocol described in Example 2 was applied, 20 μl of water being substituted with 20 μl of corresponding GAG or PG solution. The tested GAGs and PGs thereby undergo additional dilution to 1/10. […]
On the technique in general: ELISA stands for enzyme-linked immunosorbent assay.
Target sequence in this assay (P09038 143-288): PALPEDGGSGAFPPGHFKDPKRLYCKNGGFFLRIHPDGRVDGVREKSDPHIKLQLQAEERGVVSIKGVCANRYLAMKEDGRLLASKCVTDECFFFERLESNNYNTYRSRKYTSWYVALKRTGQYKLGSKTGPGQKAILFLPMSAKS

In assay [6] the target is T1, FGF-2. The assay is described as follows: Protection of FGF-2 at physiological temperature, FGF-2 dosed after 24 hrs at 37° C. In kind it is biochemical. The settings on record: 0.01% heparin. As to the method: It was absolutely necessary to check whether the extract 5c was able to protect FGF-2 at a physiological temperature, i.e., 37° C. This is why an investigation consisted of dosing FGF-2 after 24 hrs at 37° C. in the absence or in the presence of increasing concentrations of extract 5c.
Target sequence in this assay (P09038 143-288): as above

The target in assay [7] is T1, FGF-2. As to the kind of experiment: Study of thermal degradation (stability) of FGF-2 at various temperatures with or without heparin, ELISA. In kind it is physicochemical. The conditions noted are these: 0.05% heparin. As to the method:
A 5 ng/ml solution of FGF-2 in a 10 mM PBS buffer with 0.1% BSA and 0.1% of methylparaben is prepared.
This solution is placed at various temperatures: 4° C., 20° C., 37° C., 50° C., and 80° C. either in the presence of heparin or not at 500 μg/ml.
Dosages of FGF-2 with a commercial ELISA kit (R&D system, France) are performed at different times (T=0, 3 hrs, 24 hrs and 48 hrs) so as to establish degradation kinetics for each temperature of investigation.
The results are expressed as a percentage of FGF-2 relative to time T=0. The experiments are conducted in triplicates (n=3). The obtained results are illustrated in FIGS. 1 and 2.
Target sequence in this assay (P09038 143-288): as above

For assay [8], the target named is T1, FGF-2. The settings on record: pH 2 and pH 9 versus neutral pH; cited from earlier work.
Target sequence in this assay (P09038 134-288 limits assumed): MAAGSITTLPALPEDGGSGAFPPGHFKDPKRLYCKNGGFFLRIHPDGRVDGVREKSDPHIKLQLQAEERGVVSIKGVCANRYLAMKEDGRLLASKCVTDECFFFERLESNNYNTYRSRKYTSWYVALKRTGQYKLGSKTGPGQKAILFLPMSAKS
Assay [9] addresses T1, FGF-2. The conditions noted are these: cited from earlier work.
Target sequence in this assay (P09038 134-288 limits assumed): as above
Assay [10] deals with T1, FGF-2. The conditions noted are these: 3 hours of incubation at 37° C.; cited from earlier work.
Target sequence in this assay (P09038 134-288 limits assumed): as above
Setting [11] is: 0.01%, 0.001%, further diluted 1/10, 45° C. 2.15 hrs.

`O=C1O[C@H]([C@@H](O)CO)C(O)=C1O` [Vitamin C, vitamin C]: in assay [1], the “% control (collagen synthesis)” value is given as 170% and the “cpm (3H-proline incorporation)” value amounted to 10185 cpm.
With “Degraded FGF-2: solution of FGF-2 placed for 24 hrs at 37° C. in the absence of heparin”, the “Proliferation (as a percentage) of fibroblasts relative to the non-treated control” value in assay [2] (FGF-2 0.5 ng/ml, 0.5% 5c extract during 24 hrs at 37° C. (0.0025% on the cells)) is 123.7% ± 0.005. Moreover, the “Proliferation (expressed as percent relative to the non-treated well)” value in assay [2] (FGF-2 concentration 0.1 ng/ml) was 96.2 ± 0.014%; in assay [2] (FGF-2 concentration 0.25 ng/ml), 111 ± 0.006%; in assay [2] (FGF-2 concentration 0.5 ng/ml) it was 123.7 ± 0.005%; in assay [2] (FGF-2 concentration 0.75 ng/ml) it was 132.5 ± 0.004%; in [2] (FGF-2 concentration 1 ng/ml), 146.4 ± 0.01%.
With TGF-β, in assay [3], the “% control, total GAGs” value was determined as 240%; the “Activity (cpm), total GAGs” value worked out at 2590 cpm; the “Ratio (act./Prot.), total GAGs” value is on record as 709. Also, in assay [4], the “% control, sulfated GAGs” value amounted to 176%; the “Activity (cpm), sulfated GAGs” value is 5442 cpm; the “Ratio (act./Prot.), sulfated GAGs” value was determined as 1491.
Turning to chondroitin sulfate, the “FGF-2 protection by GAGs of the skin” value in [5] (chondroitin sulfate solutions at 0.1%, 0.01%, 0.001%, further diluted 1/10, 45° C. 2.15 hrs) is less than 100%. Further, the “FGF-2 protection by GAGs and proteoglycans of the skin (in words)” value (“FGF-2 protection … (in words)” for short) in assay [5] (setting [11]) is “depends on its dose”.
As to dermatan sulfate, the “FGF-2 protection … (in words)” value in [5] (setting [11]) was “protects FGF-2”.
The same measure, in the same setting: under heparan sulfate [Heparin sulfate] stands “protects FGF-2”.
With heparin, the “Protection of FGF-2, positive control” value in assay [5] (0.01% heparin in the final reaction medium, 45° C. stress of Example 2) is 105.52%±3.04; in [6], 110.53%±3.20. Also, in assay [7] (80° C.), the “Protection of FGF-2 by heparin (in words)” value is listed as “not effective”. For the same molecule, in assay [7] (various temperatures), the “Stability of FGF-2 in the presence of heparin (in words)” value is “degradation is stopped”. Moreover, in assay [2] (heparin 0.01%, up to 0.5 ng/ml FGF-2), the “Proliferation with FGF-2 protected by heparin (in words)” value was “proliferation is maintained”. In addition, in [8], the “Activity of FGF-2 at acid and basic pH in the presence of heparin (in words)” value was “retain a similar (or even slightly weaker) activity of FGF-2”. The “Protection of the activity of FGF-2 by heparin (in words)” value in assay [9] (0° C., 20° C., 37° C., 1 hr to 60 days) is listed as “provides protection of the activity of FGF-2 over time”. For the same molecule, the “Activity of FGF-2 in the presence of heparin (in words)” value in assay [9] (60° C. and 90° C.) is listed as “no activity is detected”. The “Protection of FGF-2 against trypsin and chymotripsin (in words)” value in assay [10] was “total protection of FGF-2”.
For the molecule hyaluronic acid [Hyaluronan], the “FGF-2 protection … (in words)” value in assay [5] (setting [11]) was “by no means allows FGF-2 to be protected”.

B1: decorin: proteoglycan consisting of chondroitin sulfate and dermatan sulfate chains (protein, UniProt P07585 31-359, looked up)
Decorin: DEASGIGPEVPDDRDFEPSLGPVCPFRCQCHLRVVQCSDLGLDKVPKDLPPDTTLLDLQNNKITEIKDGDFKNLKNLHALILVNNKISKVSPGAFTPLVKLERLYLSKNQLKELPEKMPKTLQELRAHENEITKVRKVTFNGLNQMIVIELGTNPLKSSGIENGAFQGMKKLSYIRIADTNITSIPQGLPPSLTELHLDGNKISRVDAASLKGLNNLAKLGLSFNSISAVDNGSLANTPHLRELHLDNNKLTRVPGGLAEHKYIQVVYLHNNNISVVGSSDFCPPGHNTKKASYSGVSLFSNPVQYWEIQPSTFRCVYVRSAIQLGNYK
On to B1, for which, in assay [5] (setting [11]), the “FGF-2 protection … (in words)” value is “inefficient”.
